Key:
[1] = test system: porcine bronchi; assay: Toxicity and histopathological evaluation after injections in all lobes of the lungs of porcine subjects; assay type: in vivo
Procedure: Four porcine subjects were treated with two different drugs to test pharmacokinetics and toxicity in porcine bronchi. Dexamethasone was administered to 2 animals at low (1 mg/mL), medium (2 mg/mL), and high (4 mg/mL) doses. The other drug, α-1-antitrypsin (Alpha-1-antitrypsin or A1AT), was administered to the remaining animals at low (2 mg/mL), medium (10 mg/mL), and high (50 mg/mL) doses. The drugs were administered via injections in all lobes of the lungs at the varying dosages.
All animals survived until a scheduled termination and were sacrificed on day 30. All four animals had limited necropsies completed.
This group was comprised of 2 animals. Both animals received low dose treatment in the right upper and middle lung lobes, and mid dose treatment in the right lower lung lobe. One subject received high dose treatment in the left upper lung lobe. Another subject received high dose treatment in the left upper and lower lung lobes.
This group was comprised of 2 animals. Both animals received low dose treatment in the right upper and middle lung lobes, and mid dose treatment in the right lower lung lobe. One subject received high dose treatment in the left lower lung lobe, and the other received high dose treatment in the left upper lung lobe.

[2] = test system: bronchial walls; assay: Bronchial wall injections in a porcine subject: bronchoconstriction challenge and relief; assay type: in vivo; conditions: for Effect of injection into methacholine-narrowed segments (bronchodilation): 0.1 to 0.5 mL injected into narrowed bronchial segments
Procedure: In another animal study, one porcine subject was utilized. The animal received multiple injections in the bronchial wall of sub-selected bronchi. First injections of methacholine in concentrations of 0.3 or 3.0 mg/mL and volumes of 0.1 to 0.5 mL were made into bronchial walls throughout the airway tree.

[3] = oral administration, cited from earlier work
[4] = 0.3 or 3.0 mg/mL, 0.1 to 0.5 mL into bronchial walls

Compound	Findings in bronchial or bronchiolar walls ([1]; pig, in vivo)	Gross or histopathological changes in the lung related to toxic effects ([1]; pig, in vivo)	Inflammatory cell infiltrates in lung sections (considered a background change) ([1]; pig, in vivo)	Effect of injection into methacholine-narrowed segments (bronchodilation) [2]	other results
C[C@@H]1C[C@H]2[C@@H]3CCC4=CC(=O)C=C[C@]4(C)[C@@]3(F)[C@@H](O)C[C@]2(C)[C@@]1(O)C(=O)CO [Dexamethasone]	no abnormal findings	did not induce any gross or histopathological changes	minimal multifocal inflammatory cell infiltrates		Histopathological examination of the lung tissues ([1]; porcine, injections in lung lobes at low, medium and high doses, sacrificed on day 30): normal lung architecture
C[N+]1(C)[C@@H]2C[C@@H](OC(=O)C(O)(c3cccs3)c3cccs3)C[C@H]1[C@@H]1O[C@@H]12 [tiotropium bromide]				immediate bronchodilation	
CC(=O)OC(C)C[N+](C)(C)C (centres unmarked) [methacholine]					Duration of bronchoconstriction [2, 4]: more than 30 minutes; Effect of injection on the airway (bronchoconstriction) [2, 4]: immediate bronchoconstriction
CN(Cc1cnc2nc(N)nc(N)c2n1)c1ccc(C(=O)N[C@@H](CCC(=O)O)C(=O)O)cc1 [MTX, Methotrexate]					Onset of action ([3]; patients): 4-6 weeks; Patients having some response [3]: 70%
CC(C)(C)NC[C@H](O)c1ccc(O)c(CO)c1 [levalbuterol]				immediate bronchodilation	
α-1-antitrypsin [A1AT]	no abnormal findings	did not induce any gross or histopathological changes	minimal multifocal inflammatory cell infiltrates		Histopathological examination of the lung tissues ([1]; pig, in vivo): normal lung architecture
